According to PMC11864979, “First-in-class ultralong-target-residence-time p38α inhibitors as a mitosis-targeted therapy for colorectal cancer” (Nature Cancer, 2025):
Like-named read-outs stand apart in the source and are kept apart here.

Tests used:
Experiment in all cases: selectivity profiling in a panel of 340 wild-type kinases (Reaction Biology Europe)
Format in all cases: binding
340 wild-type kinases [1] = biological target: T1, 340 wild-type kinases (Homo sapiens, UniProt O60566)
T1 construct: purchased Reaction Biology Europe
T1 sequence (O60566 whole entry): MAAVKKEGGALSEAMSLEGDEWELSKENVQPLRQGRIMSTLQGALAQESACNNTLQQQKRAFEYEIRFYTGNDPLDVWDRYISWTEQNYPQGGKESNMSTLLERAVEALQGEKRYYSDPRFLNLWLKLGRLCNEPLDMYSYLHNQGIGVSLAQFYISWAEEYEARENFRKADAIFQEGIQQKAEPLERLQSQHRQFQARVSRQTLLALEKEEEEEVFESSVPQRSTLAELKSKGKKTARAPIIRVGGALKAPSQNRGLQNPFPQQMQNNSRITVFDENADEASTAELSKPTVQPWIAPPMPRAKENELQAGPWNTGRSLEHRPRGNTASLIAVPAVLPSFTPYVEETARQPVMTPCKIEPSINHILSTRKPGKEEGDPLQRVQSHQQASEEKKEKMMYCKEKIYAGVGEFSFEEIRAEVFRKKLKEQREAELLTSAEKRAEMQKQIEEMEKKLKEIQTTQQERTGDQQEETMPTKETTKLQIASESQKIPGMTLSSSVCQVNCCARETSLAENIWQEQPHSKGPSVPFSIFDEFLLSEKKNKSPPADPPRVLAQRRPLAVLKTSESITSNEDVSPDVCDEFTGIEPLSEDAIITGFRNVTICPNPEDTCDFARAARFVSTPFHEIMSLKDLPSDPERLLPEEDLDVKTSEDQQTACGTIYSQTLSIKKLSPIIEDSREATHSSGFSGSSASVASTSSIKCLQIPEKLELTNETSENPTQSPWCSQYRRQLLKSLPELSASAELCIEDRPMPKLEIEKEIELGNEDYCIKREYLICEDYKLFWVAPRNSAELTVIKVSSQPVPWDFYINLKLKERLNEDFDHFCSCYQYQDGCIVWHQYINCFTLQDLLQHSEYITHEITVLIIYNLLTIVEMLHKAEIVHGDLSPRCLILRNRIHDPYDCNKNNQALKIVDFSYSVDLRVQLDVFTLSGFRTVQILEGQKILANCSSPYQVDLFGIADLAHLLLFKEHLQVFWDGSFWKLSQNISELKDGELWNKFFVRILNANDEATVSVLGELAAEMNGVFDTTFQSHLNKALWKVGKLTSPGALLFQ

340 wild-type kinases [2] = biological target: T2, 340 wild-type kinases (Homo sapiens, UniProt P29376)
T2 construct: purchased Reaction Biology Europe

340 wild-type kinases [3] = biological target: T3, 340 wild-type kinases (Homo sapiens, UniProt P36507)
T3 construct: purchased Reaction Biology Europe

340 wild-type kinases [4] = biological target: T4, 340 wild-type kinases (Homo sapiens, UniProt P43250)
T4 construct: purchased Reaction Biology Europe

340 wild-type kinases [5] = biological target: T5, 340 wild-type kinases (Homo sapiens, UniProt P51817)
T5 construct: purchased Reaction Biology Europe
T5 sequence (P51817 1-358): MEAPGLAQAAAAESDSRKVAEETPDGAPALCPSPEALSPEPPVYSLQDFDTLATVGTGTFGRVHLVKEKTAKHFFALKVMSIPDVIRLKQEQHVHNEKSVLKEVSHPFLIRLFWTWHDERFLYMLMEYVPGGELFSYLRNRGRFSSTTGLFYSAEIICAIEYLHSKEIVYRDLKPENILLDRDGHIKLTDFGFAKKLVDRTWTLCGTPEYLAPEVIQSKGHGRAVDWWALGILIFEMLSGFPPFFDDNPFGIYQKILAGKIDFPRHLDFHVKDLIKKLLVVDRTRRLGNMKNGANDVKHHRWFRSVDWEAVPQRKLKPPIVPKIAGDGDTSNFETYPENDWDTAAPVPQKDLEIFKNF

340 wild-type kinases [6] = biological target: T6, 340 wild-type kinases (Homo sapiens, UniProt Q14164)
T6 construct: purchased Reaction Biology Europe
T6 sequence (Q14164 1-716): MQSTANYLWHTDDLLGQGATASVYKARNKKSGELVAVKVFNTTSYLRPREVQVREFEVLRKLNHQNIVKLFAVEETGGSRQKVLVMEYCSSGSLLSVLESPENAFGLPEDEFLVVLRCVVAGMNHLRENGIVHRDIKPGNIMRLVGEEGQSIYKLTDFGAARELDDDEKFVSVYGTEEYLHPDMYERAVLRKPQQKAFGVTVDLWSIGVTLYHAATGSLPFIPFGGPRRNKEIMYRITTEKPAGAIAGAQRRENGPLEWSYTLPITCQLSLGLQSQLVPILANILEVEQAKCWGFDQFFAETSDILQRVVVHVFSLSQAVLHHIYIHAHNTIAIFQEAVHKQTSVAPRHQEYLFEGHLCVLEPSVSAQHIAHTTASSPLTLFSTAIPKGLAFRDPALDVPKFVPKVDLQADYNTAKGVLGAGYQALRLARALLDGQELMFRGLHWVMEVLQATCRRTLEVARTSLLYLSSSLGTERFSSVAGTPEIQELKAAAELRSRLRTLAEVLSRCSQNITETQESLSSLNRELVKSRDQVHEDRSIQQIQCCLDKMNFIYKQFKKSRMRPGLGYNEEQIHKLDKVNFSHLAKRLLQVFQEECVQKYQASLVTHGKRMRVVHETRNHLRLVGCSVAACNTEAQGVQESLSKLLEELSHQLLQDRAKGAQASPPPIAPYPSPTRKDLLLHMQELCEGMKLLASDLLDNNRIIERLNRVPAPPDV

340 wild-type kinases [7] = biological target: T7, 340 wild-type kinases (Homo sapiens, UniProt Q6IQ55)
T7 construct: purchased Reaction Biology Europe
T7 sequence (Q6IQ55 whole entry): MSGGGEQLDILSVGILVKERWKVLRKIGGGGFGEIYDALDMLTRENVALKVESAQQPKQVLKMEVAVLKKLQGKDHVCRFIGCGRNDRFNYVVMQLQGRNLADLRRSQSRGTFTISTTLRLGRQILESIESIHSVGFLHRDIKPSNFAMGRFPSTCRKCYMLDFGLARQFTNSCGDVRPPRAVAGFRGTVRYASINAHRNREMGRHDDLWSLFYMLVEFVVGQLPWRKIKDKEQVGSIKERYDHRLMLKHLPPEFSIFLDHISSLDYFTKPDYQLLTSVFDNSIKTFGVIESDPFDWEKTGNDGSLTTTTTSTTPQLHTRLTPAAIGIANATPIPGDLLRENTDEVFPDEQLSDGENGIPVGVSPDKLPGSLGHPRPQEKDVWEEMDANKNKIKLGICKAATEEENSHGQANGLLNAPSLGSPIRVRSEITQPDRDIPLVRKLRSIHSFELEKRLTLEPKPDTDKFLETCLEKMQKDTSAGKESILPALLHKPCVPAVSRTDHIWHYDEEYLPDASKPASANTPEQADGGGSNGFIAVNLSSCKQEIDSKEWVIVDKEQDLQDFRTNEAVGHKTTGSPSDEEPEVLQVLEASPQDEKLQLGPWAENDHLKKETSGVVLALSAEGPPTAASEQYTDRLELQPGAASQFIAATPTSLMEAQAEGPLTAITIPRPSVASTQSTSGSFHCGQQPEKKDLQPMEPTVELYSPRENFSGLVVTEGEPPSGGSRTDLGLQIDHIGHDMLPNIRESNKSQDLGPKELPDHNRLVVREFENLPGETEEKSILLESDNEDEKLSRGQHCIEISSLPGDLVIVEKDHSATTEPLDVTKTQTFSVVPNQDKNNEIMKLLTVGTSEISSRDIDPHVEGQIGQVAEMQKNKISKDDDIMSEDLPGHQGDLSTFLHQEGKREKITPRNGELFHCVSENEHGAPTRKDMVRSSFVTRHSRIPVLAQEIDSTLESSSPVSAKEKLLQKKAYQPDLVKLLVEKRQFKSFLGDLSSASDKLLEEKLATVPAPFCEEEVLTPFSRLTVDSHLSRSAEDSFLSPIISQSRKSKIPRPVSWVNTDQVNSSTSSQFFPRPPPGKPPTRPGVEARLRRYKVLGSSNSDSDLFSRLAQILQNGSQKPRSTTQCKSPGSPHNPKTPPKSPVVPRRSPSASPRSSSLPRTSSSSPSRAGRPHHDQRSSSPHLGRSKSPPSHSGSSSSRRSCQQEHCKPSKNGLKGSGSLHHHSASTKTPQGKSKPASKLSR

340 wild-type kinases [8] = biological target: T8, 340 wild-type kinases (Homo sapiens, UniProt Q9H4A3)
T8 construct: purchased Reaction Biology Europe
T8 sequence (Q9H4A3 whole entry): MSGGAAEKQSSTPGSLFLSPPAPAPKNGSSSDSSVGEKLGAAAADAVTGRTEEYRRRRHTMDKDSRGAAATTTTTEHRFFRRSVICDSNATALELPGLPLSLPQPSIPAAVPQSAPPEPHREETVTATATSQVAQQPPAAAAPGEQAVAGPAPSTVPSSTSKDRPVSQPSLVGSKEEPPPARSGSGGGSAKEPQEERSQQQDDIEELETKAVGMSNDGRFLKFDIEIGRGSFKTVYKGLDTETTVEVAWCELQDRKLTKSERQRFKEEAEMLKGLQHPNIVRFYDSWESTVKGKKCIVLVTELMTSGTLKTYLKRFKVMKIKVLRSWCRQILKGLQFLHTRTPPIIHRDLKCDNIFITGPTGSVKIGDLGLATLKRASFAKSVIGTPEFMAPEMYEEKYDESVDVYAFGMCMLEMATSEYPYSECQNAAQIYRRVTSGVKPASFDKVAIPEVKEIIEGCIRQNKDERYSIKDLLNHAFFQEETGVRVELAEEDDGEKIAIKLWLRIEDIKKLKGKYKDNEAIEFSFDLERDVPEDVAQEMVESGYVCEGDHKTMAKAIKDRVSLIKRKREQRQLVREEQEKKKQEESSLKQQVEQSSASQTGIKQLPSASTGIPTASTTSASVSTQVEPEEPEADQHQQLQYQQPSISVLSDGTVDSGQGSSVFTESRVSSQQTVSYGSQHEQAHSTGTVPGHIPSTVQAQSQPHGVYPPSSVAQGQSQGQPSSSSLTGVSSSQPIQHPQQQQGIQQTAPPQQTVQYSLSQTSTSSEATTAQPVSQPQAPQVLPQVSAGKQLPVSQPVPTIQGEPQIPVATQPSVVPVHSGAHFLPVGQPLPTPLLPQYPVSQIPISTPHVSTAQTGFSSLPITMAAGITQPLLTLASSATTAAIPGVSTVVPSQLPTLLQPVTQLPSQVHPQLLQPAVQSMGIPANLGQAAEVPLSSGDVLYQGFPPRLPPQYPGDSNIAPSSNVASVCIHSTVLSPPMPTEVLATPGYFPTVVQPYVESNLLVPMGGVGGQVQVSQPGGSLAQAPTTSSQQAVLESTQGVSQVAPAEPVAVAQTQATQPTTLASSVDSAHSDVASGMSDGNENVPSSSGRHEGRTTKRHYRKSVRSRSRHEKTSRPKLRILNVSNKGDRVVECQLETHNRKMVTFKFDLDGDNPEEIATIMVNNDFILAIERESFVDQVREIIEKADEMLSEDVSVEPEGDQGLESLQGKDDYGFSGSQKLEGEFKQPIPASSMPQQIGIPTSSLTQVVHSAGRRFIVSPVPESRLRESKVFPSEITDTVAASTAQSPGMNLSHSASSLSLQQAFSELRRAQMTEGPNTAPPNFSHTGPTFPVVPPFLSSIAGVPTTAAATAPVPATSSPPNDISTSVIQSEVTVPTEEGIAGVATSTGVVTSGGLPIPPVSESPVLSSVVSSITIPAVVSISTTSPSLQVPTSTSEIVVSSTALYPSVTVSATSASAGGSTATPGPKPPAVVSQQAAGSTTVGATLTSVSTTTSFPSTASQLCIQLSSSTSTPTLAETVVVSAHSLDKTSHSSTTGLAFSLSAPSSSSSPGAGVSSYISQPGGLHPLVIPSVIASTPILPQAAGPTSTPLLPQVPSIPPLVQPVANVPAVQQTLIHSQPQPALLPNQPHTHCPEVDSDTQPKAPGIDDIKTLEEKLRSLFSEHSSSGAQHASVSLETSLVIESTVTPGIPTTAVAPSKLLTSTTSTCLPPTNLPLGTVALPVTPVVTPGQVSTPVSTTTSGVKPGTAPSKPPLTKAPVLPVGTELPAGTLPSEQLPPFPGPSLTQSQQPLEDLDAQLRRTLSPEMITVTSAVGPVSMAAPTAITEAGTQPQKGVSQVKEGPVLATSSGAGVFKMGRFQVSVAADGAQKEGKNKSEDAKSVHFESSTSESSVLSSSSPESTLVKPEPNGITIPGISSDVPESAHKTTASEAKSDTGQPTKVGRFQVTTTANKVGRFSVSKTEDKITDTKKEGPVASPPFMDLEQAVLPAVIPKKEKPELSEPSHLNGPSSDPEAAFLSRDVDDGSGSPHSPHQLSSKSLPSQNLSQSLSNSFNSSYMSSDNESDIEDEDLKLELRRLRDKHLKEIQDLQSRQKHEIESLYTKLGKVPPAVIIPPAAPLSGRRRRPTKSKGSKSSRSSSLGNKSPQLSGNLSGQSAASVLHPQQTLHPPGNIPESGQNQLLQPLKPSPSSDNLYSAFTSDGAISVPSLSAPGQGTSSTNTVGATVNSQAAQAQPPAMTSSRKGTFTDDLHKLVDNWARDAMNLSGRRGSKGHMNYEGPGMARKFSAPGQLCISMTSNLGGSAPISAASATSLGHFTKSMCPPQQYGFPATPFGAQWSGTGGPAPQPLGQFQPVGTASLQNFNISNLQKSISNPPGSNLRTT

340 wild-type kinases [9] = biological target: T9, 340 wild-type kinases (Homo sapiens, UniProt Q9UBE8)
T9 construct: purchased Reaction Biology Europe
T9 sequence (Q9UBE8 1-527): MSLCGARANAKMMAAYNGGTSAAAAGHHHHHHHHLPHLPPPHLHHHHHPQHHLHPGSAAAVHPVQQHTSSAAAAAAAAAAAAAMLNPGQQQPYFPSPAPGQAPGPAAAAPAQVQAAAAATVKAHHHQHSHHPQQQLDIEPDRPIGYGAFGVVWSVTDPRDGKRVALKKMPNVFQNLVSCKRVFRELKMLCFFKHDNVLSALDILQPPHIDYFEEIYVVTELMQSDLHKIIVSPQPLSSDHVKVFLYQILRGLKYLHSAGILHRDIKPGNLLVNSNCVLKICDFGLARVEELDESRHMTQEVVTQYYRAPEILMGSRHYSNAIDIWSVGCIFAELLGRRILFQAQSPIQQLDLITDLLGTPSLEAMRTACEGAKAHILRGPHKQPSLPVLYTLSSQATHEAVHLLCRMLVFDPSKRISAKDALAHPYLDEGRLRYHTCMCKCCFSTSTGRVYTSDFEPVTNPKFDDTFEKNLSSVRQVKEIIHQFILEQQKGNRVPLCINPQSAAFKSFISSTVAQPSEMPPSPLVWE

340 wild-type kinases [10] = biological target: T10, 340 wild-type kinases (Homo sapiens, UniProt Q9UBS0)
T10 construct: purchased Reaction Biology Europe

340 wild-type kinases [11] = biological target: T11, 340 wild-type kinases (Homo sapiens, UniProt Q9Y6M4)
T11 construct: purchased Reaction Biology Europe
T11 sequence (Q9Y6M4 whole entry): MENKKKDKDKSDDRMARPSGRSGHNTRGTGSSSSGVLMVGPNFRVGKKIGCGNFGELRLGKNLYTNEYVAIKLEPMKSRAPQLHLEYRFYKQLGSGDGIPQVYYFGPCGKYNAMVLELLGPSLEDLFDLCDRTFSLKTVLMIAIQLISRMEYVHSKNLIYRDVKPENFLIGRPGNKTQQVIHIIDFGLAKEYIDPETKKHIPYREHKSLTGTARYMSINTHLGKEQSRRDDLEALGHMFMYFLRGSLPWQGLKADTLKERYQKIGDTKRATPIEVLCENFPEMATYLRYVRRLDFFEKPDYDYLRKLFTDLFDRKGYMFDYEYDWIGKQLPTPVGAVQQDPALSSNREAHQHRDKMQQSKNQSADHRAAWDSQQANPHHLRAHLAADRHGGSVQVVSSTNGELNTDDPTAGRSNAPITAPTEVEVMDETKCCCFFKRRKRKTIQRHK

Molecule `CNC(=O)c1ccc2c(c1)C(=O)c1ccc(Nc3ccc(F)c(NC(=O)C4CC4)c3)cc1CC2` [Compound 2015] has a remaining activity at 0.2 µM (340 wild-type kinases [1]; 0.2 µM 2015, read-out: BUB1B residual activity) of 94.1%, a remaining activity at 1 µM (340 wild-type kinases [1]; 1 µM 2015, read-out: BUB1B residual activity) of 95.8% and a remaining activity at 0.2 µM (340 wild-type kinases [1]; BUB1B, 0.2 µM, read-out: residual activity) of 94.1%. For the same molecule, the remaining activity at 1 µM (340 wild-type kinases [1]; BUB1B, 1 µM, read-out: residual activity) was 95.8%, the remaining activity at 0.2 µM (340 wild-type kinases [2]; 0.2 µM 2015, read-out: LTK residual activity) was 100% and the remaining activity at 1 µM (340 wild-type kinases [2]; 1 µM 2015, read-out: LTK residual activity) was 99.3%. The remaining activity at 0.2 µM (340 wild-type kinases [2]; LTK, 0.2 µM, read-out: residual activity) was 100%, the remaining activity at 1 µM (340 wild-type kinases [2]; LTK, 1 µM, read-out: residual activity) was 99.3% and the remaining activity at 0.2 µM (340 wild-type kinases [3]; 0.2 µM 2015, read-out: MEK2 residual activity) was 103%. It also gave a remaining activity at 1 µM (340 wild-type kinases [3]; 1 µM 2015, read-out: MEK2 residual activity) of 69.7%, a remaining activity at 0.2 µM (340 wild-type kinases [3]; MEK2, 0.2 µM, read-out: residual activity) of 103% and a remaining activity at 1 µM (340 wild-type kinases [3]; MEK2, 1 µM, read-out: residual activity) of 69.7%. For the same molecule, the remaining activity at 0.2 µM (340 wild-type kinases [4]; 0.2 µM 2015, read-out: GRK6 residual activity) was 111%, the remaining activity at 1 µM (340 wild-type kinases [4]; 1 µM 2015, read-out: GRK6 residual activity) was 110% and the remaining activity at 0.2 µM (340 wild-type kinases [4]; GRK6, 0.2 µM, read-out: residual activity) was 111%. For the same molecule, the remaining activity at 1 µM (340 wild-type kinases [4]; GRK6, 1 µM, read-out: residual activity) was 110%, the remaining activity at 0.2 µM (340 wild-type kinases [5]; 0.2 µM 2015, read-out: PRKX residual activity) was 107% and the remaining activity at 1 µM (340 wild-type kinases [5]; 1 µM 2015, read-out: PRKX residual activity) was 97.1%. For the same molecule, the remaining activity at 0.2 µM (340 wild-type kinases [5]; PRKX, 0.2 µM, read-out: residual activity) was 107%, the remaining activity at 1 µM (340 wild-type kinases [5]; PRKX, 1 µM, read-out: residual activity) was 97% and the remaining activity at 0.2 µM (340 wild-type kinases [6]; 0.2 µM 2015, read-out: IKKepsilon residual activity) was 103%. It also gave a remaining activity at 1 µM (340 wild-type kinases [6]; 1 µM 2015, read-out: IKKepsilon residual activity) of 92.6%, a remaining activity at 0.2 µM (340 wild-type kinases [6]; IKKepsilon, 0.2 µM, read-out: residual activity) of 103% and a remaining activity at 1 µM (340 wild-type kinases [6]; IKKepsilon, 1 µM, read-out: residual activity) of 92.6%. The remaining activity at 0.2 µM (340 wild-type kinases [7]; 0.2 µM 2015, read-out: TTBK2 residual activity) was 115%, the remaining activity at 1 µM (340 wild-type kinases [7]; 1 µM 2015, read-out: TTBK2 residual activity) was 118% and the remaining activity at 0.2 µM (340 wild-type kinases [7]; TTBK2, 0.2 µM, read-out: residual activity) was 115%. It also gave a remaining activity at 1 µM (340 wild-type kinases [7]; TTBK2, 1 µM, read-out: residual activity) of 118%, a remaining activity at 0.2 µM (340 wild-type kinases [8]; 0.2 µM 2015, read-out: WNK1 residual activity) of 95% and a remaining activity at 1 µM (340 wild-type kinases [8]; 1 µM 2015, read-out: WNK1 residual activity) of 91.4%. For the same molecule, the remaining activity at 0.2 µM (340 wild-type kinases [8]; WNK1, 0.2 µM, read-out: residual activity) was 95%, the remaining activity at 1 µM (340 wild-type kinases [8]; WNK1, 1 µM, read-out: residual activity) was 91.4% and the remaining activity at 0.2 µM (340 wild-type kinases [9]; 0.2 µM 2015, read-out: NLK residual activity) was 92%. For the same molecule, the remaining activity at 1 µM (340 wild-type kinases [9]; 1 µM 2015, read-out: NLK residual activity) was 85.5%, the remaining activity at 0.2 µM (340 wild-type kinases [9]; NLK, 0.2 µM, read-out: residual activity) was 92% and the remaining activity at 1 µM (340 wild-type kinases [9]; NLK, 1 µM, read-out: residual activity) was 85.5%. The remaining activity at 0.2 µM (340 wild-type kinases [10]; 0.2 µM 2015, read-out: S6Kbeta residual activity) was 108%, the remaining activity at 1 µM (340 wild-type kinases [10]; 1 µM 2015, read-out: S6Kbeta residual activity) was 109% and the remaining activity at 0.2 µM (340 wild-type kinases [10]; S6Kbeta, 0.2 µM, read-out: residual activity) was 108%. It also gave a remaining activity at 1 µM (340 wild-type kinases [10]; S6Kbeta, 1 µM, read-out: residual activity) of 109%, a remaining activity at 0.2 µM (340 wild-type kinases [11]; 0.2 µM 2015, read-out: CK1gamma3 residual activity) of 93.4% and a remaining activity at 1 µM (340 wild-type kinases [11]; 1 µM 2015, read-out: CK1gamma3 residual activity) of 91%. It also gave a remaining activity at 0.2 µM (340 wild-type kinases [11]; CK1gamma3, 0.2 µM, read-out: residual activity) of 93.4% and a remaining activity at 1 µM (340 wild-type kinases [11]; CK1gamma3, 1 µM, read-out: residual activity) of 91%.
